Experimental data taken from ChEMBL document CHEMBL3853262 (Medchemcomm, 2016).
The source made the active and inactive calls. No cut-off for these calls is given here.

How the values were obtained:
THP-1 [1] = assay: Proapoptotic activity in human THP1 cells assessed as early apoptotic cells at 25 uM after 1 hr by annexin V/propidium iodide staining-based capillary cytometric method relative to control; assay type: functional
NTERA-2-cl-D1 [2] = assay: Proapoptotic activity in human NT2/D1 cells assessed as viable cells at 25 uM after 3 hrs by annexin V/propidium iodide staining-based capillary cytometric method relative to control; assay type: functional; conditions: NTERA-2-cl-D1, 3 h, read-out: Activity
THP-1 [3] = assay: Proapoptotic activity in human THP1 cells assessed as early apoptotic cells at 25 uM after 5 hrs by annexin V/propidium iodide staining-based capillary cytometric method relative to control; assay type: functional
THP-1 [4] = assay: Proapoptotic activity in human THP1 cells assessed as necrotic cells at 25 uM after 5 hrs by annexin V/propidium iodide staining-based capillary cytometric method relative to control; assay type: functional
THP-1 [5] = assay: Proapoptotic activity in human THP1 cells assessed as late apoptotic cells at 25 uM after 7 hrs by annexin V/propidium iodide staining-based capillary cytometric method relative to control; assay type: functional
THP-1 [6] = assay: Proapoptotic activity in human THP1 cells assessed as late apoptotic cells at 25 uM after 3 hrs by annexin V/propidium iodide staining-based capillary cytometric method relative to control; assay type: functional
NTERA-2-cl-D1 [7] = assay: Proapoptotic activity in human NT2/D1 cells assessed as necrotic cells at 25 uM after 5 hrs by annexin V/propidium iodide staining-based capillary cytometric method relative to control; assay type: functional
NTERA-2-cl-D1 [8] = assay: Proapoptotic activity in human NT2/D1 cells assessed as necrotic cells at 25 uM after 3 hrs by annexin V/propidium iodide staining-based capillary cytometric method relative to control; assay type: functional
THP-1 [9] = assay: Proapoptotic activity in human THP1 cells assessed as viable cells at 25 uM after 3 hrs by annexin V/propidium iodide staining-based capillary cytometric method relative to control; assay type: functional; conditions: THP-1, 3 h, read-out: Activity
THP-1 [10] = assay: Induction of apoptosis in human THP1 cells assessed as […] cells at 25 uM after 4 hrs by annexin V/propidium iodide staining-based capillary cytometric method (reference value: 96.40%); assay type: functional
NTERA-2-cl-D1 [11] = assay: Proapoptotic activity in human NT2/D1 cells assessed as necrotic cells at 25 uM after 7 hrs by annexin V/propidium iodide staining-based capillary cytometric method relative to control; assay type: functional
THP-1 [12] = assay: Induction of apoptosis in human THP1 cells assessed as late apoptotic cells at 25 uM after 4 hrs in presence of pan caspase inhibitor Z-VAD-fmk by annexin V/propidium iodide staining-based capillary cytometric method (reference value: 0.34%); assay type: functional
THP-1 [13] = assay: Induction of apoptosis in human THP1 cells assessed as early apoptotic cells at 25 uM after 4 hrs in presence of pan caspase inhibitor Z-VAD-fmk by annexin V/propidium iodide staining-based capillary cytometric method (reference value: 3.22%); assay type: functional
THP-1 [14] = assay: Proapoptotic activity in human THP1 cells assessed as late apoptotic cells at 25 uM after 1 hr by annexin V/propidium iodide staining-based capillary cytometric method relative to control; assay type: functional
BXPC-3 = assay: Proapoptotic activity in human BxPC3 cells by annexin V-FITC/propidium iodide staining-based capillary cytometric method; assay type: functional, cell-based
THP-1 [15] = assay: Proapoptotic activity in human THP1 cells assessed as viable cells at 25 uM after 1 hr by annexin V/propidium iodide staining-based capillary cytometric method relative to control; assay type: functional; conditions: THP-1, 1 h, read-out: Activity
NTERA-2-cl-D1 [16] = assay: Proapoptotic activity in human NT2/D1 cells assessed as viable cells at 25 uM after 7 hrs by annexin V/propidium iodide staining-based capillary cytometric method relative to control; assay type: functional; conditions: NTERA-2-cl-D1, 7 h, read-out: Activity
THP-1 [17] = assay: Induction of apoptosis in human THP1 cells assessed as activation of caspase 3/7 by measuring DNA fragmentation at 25 uM after 3 hrs by 7-AAD staining-based capillary cytometric method; assay type: functional, cell-based
NTERA-2-cl-D1 [18] = assay: Proapoptotic activity in human NT2/D1 cells assessed as viable cells at 25 uM after 1 hr by annexin V/propidium iodide staining-based capillary cytometric method relative to control; assay type: functional; conditions: NTERA-2-cl-D1, 1 h, read-out: Activity
NTERA-2-cl-D1 [19] = assay: Induction of apoptosis in human NT2/D1 cells assessed as late apoptotic cells at 25 uM after 4 hrs by annexin V/propidium iodide staining-based capillary cytometric method (reference value: 0.70%); assay type: functional
THP-1 [20] = assay: Proapoptotic activity in human THP1 cells assessed as viable cells at 25 uM after 5 hrs by annexin V/propidium iodide staining-based capillary cytometric method relative to control; assay type: functional; conditions: THP-1, 5 h, read-out: Activity
THP-1 [21] = assay: Induction of apoptosis in human THP1 cells assessed as late apoptotic cells at 25 uM after 4 hrs by annexin V/propidium iodide staining-based capillary cytometric method (reference value: 0.34%); assay type: functional
THP-1 [22] = assay: Induction of DNA fragmentation in human THP1 cells at 25 uM after 6 to 24 hrs by propidium iodide/RNase staining-based capillary cytometric method; assay type: functional, cell-based
NTERA-2-cl-D1 [23] = assay: Induction of apoptosis in human NT2/D1 cells assessed as necrotic cells at 25 uM after 4 hrs by annexin V/propidium iodide staining-based capillary cytometric method (reference value: 0.10%); assay type: functional
NTERA-2-cl-D1 [24] = assay: Proapoptotic activity in human NT2/D1 cells assessed as early apoptotic cells at 25 uM after 5 hrs by annexin V/propidium iodide staining-based capillary cytometric method relative to control; assay type: functional
BJ = assay: Proapoptotic activity in human BJ cells by annexin V-FITC/propidium iodide staining-based capillary cytometric method; assay type: functional, cell-based
NTERA-2-cl-D1 [25] = assay: Induction of apoptosis in human NT2/D1 cells assessed as viable cells at 25 uM after 4 hrs by annexin V/propidium iodide staining-based capillary cytometric method (reference value: 95.80%); assay type: functional; conditions: NTERA-2-cl-D1, 4 h, read-out: Activity
THP-1 [26] = assay: Induction of apoptosis in human THP1 cells assessed as late necrotic cells at 25 uM after 4 hrs by annexin V/propidium iodide staining-based capillary cytometric method (reference value: 0.04%); assay type: functional
THP-1 [27] = assay: Induction of apoptosis in human THP1 cells assessed as early apoptotic cells at 25 uM after 4 hrs by annexin V/propidium iodide staining-based capillary cytometric method (reference value: 3.22%); assay type: functional

Question: Which Activity (THP-1 [1]) does the source give for `CNc1nc(-c2cccc(NC(=O)c3cc4ccccc4[nH]3)c2)c[nH]1.Cl` here?
Answer: 1.45%

Question: What about the viability at 25 µM (NTERA-2-cl-D1 [2]) of the same molecule?
Answer: 73.9%

Question: And the Activity (THP-1 [3])?
Answer: 33.25%

Question: What about the Activity (THP-1 [4]) of the same molecule?
Answer: 0.1%

Question: What about the Activity (THP-1 [5]) of the same molecule?
Answer: 45.9%

Question: And the Activity (THP-1 [6])?
Answer: 16.53%

Question: What about the Activity (NTERA-2-cl-D1 [7]) of the same molecule?
Answer: 0.6%

Question: And the Activity (NTERA-2-cl-D1 [8])?
Answer: 0.11%

Question: And the viability at 25 µM (THP-1 [9])?
Answer: 77.3%

Question: What about the Activity (THP-1 [10]) of the same molecule?
Answer: 5.34%

Question: And the Activity (NTERA-2-cl-D1 [11])?
Answer: 0%

Question: And the Activity (THP-1 [12])?
Answer: 17.2%

Question: And the Activity (THP-1 [13])?
Answer: 64.66%

Question: What about the Activity (THP-1 [14]) of the same molecule?
Answer: 2.66%

Question: What about the EC50 (BXPC-3) of the same molecule?
Answer: 58 µM

Question: And the viability at 25 µM (THP-1 [15])?
Answer: 95.7%

Question: And the viability at 25 µM (NTERA-2-cl-D1 [16])?
Answer: 31.2%

Question: What about the Activity (THP-1 [17]) of the same molecule?
Answer: Active

Question: What about the viability at 25 µM (NTERA-2-cl-D1 [18]) of the same molecule?
Answer: 87.7%

Question: And the Activity (NTERA-2-cl-D1 [19])?
Answer: 5.16%

Question: And the viability at 25 µM (THP-1 [20])?
Answer: 28.6%

Question: What about the Activity (THP-1 [21]) of the same molecule?
Answer: 89.44%

Question: What about the Activity (THP-1 [22]) of the same molecule?
Answer: Active

Question: What about the Activity (NTERA-2-cl-D1 [23]) of the same molecule?
Answer: 0.3%

Question: What about the Activity (NTERA-2-cl-D1 [24]) of the same molecule?
Answer: 46.36%

Question: And the EC50 (BJ)?
Answer: 21 µM

Question: And the viability at 25 µM (NTERA-2-cl-D1 [25])?
Answer: 70.7%

Question: What about the Activity (THP-1 [26]) of the same molecule?
Answer: 0.26%

Question: And the Activity (THP-1 [27])?
Answer: 4.96%
